#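 These data come from cells grown in 96-well plates and exposed to compound for 48 hours at five concentrations. At the TGI there is no net growth.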
# What was measured:
# Assay in all cases: NCI-60 cell line screen, 48 h
# NCI-H23 lung = test system: NCI-H23 lung
# COLO 205 colon = test system: COLO 205 colon
# HL-60(TB) leukemia = test system: HL-60(TB) leukemia
# M14 melanoma = test system: M14 melanoma
# SW-620 colon = test system: SW-620 colon
# K-562 leukemia = test system: K-562 leukemia
# ACHN renal = test system: ACHN renal
# OVCAR-5 ovarian = test system: OVCAR-5 ovarian
# A498 renal = test system: A498 renal
# UACC-257 melanoma = test system: UACC-257 melanoma
# MOLT-4 leukemia = test system: MOLT-4 leukemia
# U251 CNS = test system: U251 CNS
# SR leukemia = test system: SR leukemia
# LOX IMVI melanoma = test system: LOX IMVI melanoma
# DU-145 prostate = test system: DU-145 prostate
# NCI/ADR-RES ovarian = test system: NCI/ADR-RES ovarian
# T-47D breast = test system: T-47D breast
SMILES,TGI (NCI-H23 lung) [µM],TGI (COLO 205 colon) [µM],TGI (HL-60(TB) leukemia) [µM],TGI (M14 melanoma) [µM],TGI (SW-620 colon) [µM],TGI (K-562 leukemia) [µM],TGI (ACHN renal) [µM],TGI (OVCAR-5 ovarian) [µM],TGI (A498 renal) [µM],TGI (UACC-257 melanoma) [µM],TGI (MOLT-4 leukemia) [µM],TGI (U251 CNS) [µM],TGI (SR leukemia) [µM],TGI (LOX IMVI melanoma) [µM],TGI (DU-145 prostate) [µM],TGI (NCI/ADR-RES ovarian) [µM],TGI (T-47D breast) [µM]
N#C/C(=C\c1cc(O)ccc1O)C(N)=O,> 100,> 100,34.6,> 100,> 100,> 100,> 100,> 100,> 100,> 100,60.1,> 100,–,–,–,–,–
C#CCNC(=O)NCCCCC(NC(C)=O)C(=O)NCc1ccccc1 (centres undefined),> 100,> 100,–,> 100,> 100,> 100,> 100,> 100,> 100,> 100,> 100,> 100,> 100,> 100,–,–,–
[N-]=[N+]=Nc1ccc2c(c1)Sc1ccccc1N2CCCCN1CCN(Cc2ccc(C(=O)c3ccc(CSCC(N)C(=O)O)cc3)cc2)CC1 (centres undefined),74.2,40.1,30.8,–,4.79,44.9,> 100,> 100,37.7,69.2,> 100,26.4,–,24.9,67.7,–,–
Cc1cc(C)c2c(c1)N[S@@](=O)S2,> 100,33.5,61.2,33.2,16.5,67.9,65.7,81.9,> 100,35.7,65.6,31.1,83.7,30.7,–,–,–
C[C@@H]1CCC2C(C)(C)C(/C=C\C=O)C3(C)OC213 (some centres undefined),> 100,55.4,–,> 100,> 100,> 100,> 100,69.6,> 100,> 100,86.9,> 100,–,–,> 100,> 100,–
CC/C(=N/O)c1ccc2[nH]c3c(C)cc([N+](=O)[O-])c(C)c3c2c1,> 100,> 100,> 100,> 100,> 100,> 100,> 100,> 100,–,> 100,> 100,–,> 100,> 100,–,–,–
Cc1nc(N)c(-c2ccccc2)s1,> 100,> 66.7,> 72.9,> 100,> 45.6,> 100,> 100,> 100,> 100,> 96.1,> 100,> 76.4,–,> 94.4,–,–,–
O=C1NC(=S)NC(=O)C1=Cc1ccc(-c2ccccc2)cc1,> 100,> 100,–,> 100,> 100,> 100,> 100,> 100,–,> 100,> 100,> 100,–,> 100,> 100,> 100,> 100

# — PubChem BioAssay (NCI)
